Laboratory results published in patent publication US12582657B2, “Combination therapy including a KRAS G12C inhibitor and one or more additional pharmaceutically active agents for the treatment of cancers” (Amgen Inc., priority 2018, dated 2026).

What was measured:
KRAS^C118A = target: T1, KRAS^C118A (Homo sapiens, UniProt P01116, C118A); experiment: SOS1-catalyzed coupled nucleotide exchange assay (Alpha); format: biochemical; conditions: wildtype at position 12
T1 construct: His-tagged human KRAS^C118A (1-169); made in house; host or cells: Escherichia coli (KRAS, c-RAF); Trichoplusia ni (SOS1)
T1 sequence (P01116 1-169 isoform P01116-2 C118A): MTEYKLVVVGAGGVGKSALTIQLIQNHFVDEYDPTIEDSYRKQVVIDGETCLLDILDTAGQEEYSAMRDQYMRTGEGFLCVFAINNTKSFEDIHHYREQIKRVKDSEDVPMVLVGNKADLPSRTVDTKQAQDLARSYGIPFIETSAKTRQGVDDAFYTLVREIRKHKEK
Method: (§1) A cysteine-light mutant construct was used for co-crystallization studies based on the work of Ostrem et al^15.
(§2) The inhibition of the SOS1-catalyzed nucleotide exchange activity of KRAS^G12C/C118A or KRAS^C118A was measured using Alpha (Amplified Luminescent Proximity Homogeneous Assay) technology. […] For all subsequent steps, DTT was added to the reaction buffer at a final concentration of 1 mM. […] Finally, c-RAF RBD (50 nM final), Alpha glutathione donor beads (PerkinElmer; 20 μg/mL final), and AlphaLISA® nickel chelate acceptor beads (PerkinElmer; 20 μg/mL final), all diluted in DTT-reaction buffer, were added. The reaction mixture was incubated at RT for 5 min, and then the plates were read on an EnVision® Multilabel Reader using the AlphaScreen protocol. […] Signal intensity corresponded with the association of c-RAF RBD with GTP-bound KRAS^G12C/C118A or KRAS^C118A and was normalized to DMSO control.

KRAS^G12C/C118A = target: T2, KRAS^G12C/C118A (Homo sapiens, UniProt P01116, C118A/G12C); experiment: as above; format: biochemical
T2 construct: Recombinant His-tagged human KRAS^G12C/C118A (1-169); made in house; host or cells: Escherichia coli (KRAS, c-RAF); Trichoplusia ni (SOS1)
T2 sequence (P01116 1-169 isoform P01116-2 G12C/C118A): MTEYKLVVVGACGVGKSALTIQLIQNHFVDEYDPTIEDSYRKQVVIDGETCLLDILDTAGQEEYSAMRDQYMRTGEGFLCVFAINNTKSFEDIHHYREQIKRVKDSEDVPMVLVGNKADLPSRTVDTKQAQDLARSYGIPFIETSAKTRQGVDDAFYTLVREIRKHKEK
Method: as §1, §2

[1] = test system: immune cells in CT-26 KRAS p.G12C tumors; experiment: Tumor immunophenotyping by flow cytometry; format: in vivo, mouse; conditions: after 4 days of treatment
[2] = test system: ERK1/2 phosphorylation in CT-26 KRAS p.G12C tumors; experiment: Tumor pharmacodynamic assay (p-ERK, MSD immunoassay); conditions: MEKi 10 mg/kg single oral dose; 2 hours
KRAS^G12C = KRAS^G12C (Homo sapiens, UniProt P01116, G12C); experiment: Cellular kinetics from time- and concentration-dependence of p-ERK inhibition; format: cell-based; conditions: NCI-H358 cells
Sequence of KRAS^G12C (P01116 1-188 isoform P01116-2 G12C): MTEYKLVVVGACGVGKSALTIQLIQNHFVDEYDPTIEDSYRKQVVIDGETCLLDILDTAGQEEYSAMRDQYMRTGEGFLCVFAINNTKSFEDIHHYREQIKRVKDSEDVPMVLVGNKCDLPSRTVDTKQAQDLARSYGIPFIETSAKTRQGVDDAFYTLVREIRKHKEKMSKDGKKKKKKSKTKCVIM
Method: To provide an alternative estimate of the rate of GTP-hydrolysis by KRAS^G12C, a SHP2 inhibitor was employed to eliminate all upstream signaling to KRAS.
To determine the kinetic values of covalent inhibitor-KRAS^G12C adduct formation in cells, basal ERK1/2 phosphorylation levels were measured following treatment with various inhibitor concentrations at various incubation times exactly as described above, and % activity values were used for the kinetic calculations.

MIA PaCa-2 (pancreas) = experiment: In vitro two-way combination matrix, growth inhibition, Loewe synergy score; format: cell-based, human
NCI-H358 tumors = experiment: Tumor xenograft efficacy study, single agent and combinations; format: in vivo, mouse; conditions: AMG 510 10 or 30 mg/kg QD oral; carboplatin 50 or 100 mg/kg IP 1x/week

In the case of `CCC(=O)N1CCN(c2nc(=O)n(-c3c(C)ccnc3C(C)C)c3nc(-c4c(O)cccc4F)c(F)cc23)[C@@H](C)C1` (atropisomer, axis not shown; (M)) [non-reactive analog of AMG 510, (M)-6-Fluoro-7-(2-fluoro-6-hydroxyphenyl)-1-(4-methyl-2-(2-propanyl)-3-pyridinyl)-4-((2S)-2-methyl-4-propanoyl-1-piperazinyl)pyrido[2,3-d]pyrimidin-2(1H)-one], the “inhibition of KRAS^C118A nucleotide exchange” value (KRAS^C118A) is reported as “minimal activity” and the “inhibition of KRAS^G12C/C118A nucleotide exchange” value (KRAS^G12C/C118A) is reported as “minimal activity”.

In the case of `O=C(NOC[C@H](O)CO)c1ccc(F)c(F)c1Nc1ccc(I)cc1F` [MEKi, N-(((2R)-2,3-dihydroxypropyl)oxy)-3,4-difluoro-2-((2-fluoro-4-iodophenyl)amino)benzamide], the “PD-1 expression on CD8+ T cells” value [1] is reported as “moderately increased”, the “T cell infiltration of tumors” value [1] is reported as “did not affect numbers of infiltrating CD8+ T cells” and the “infiltration of macrophages and dendritic cells” value [1] is reported as “not observed”. For the same compound, the “MAPK signaling in tumors” value [2] was “blocked MAPK signaling downstream of RAS”.

With `Cc1nc(N2CCC3(CC2)CO[C@@H](C)[C@H]3N)c(CO)nc1-c1cccc(Cl)c1Cl` [RMC-4550] the “cellular GTP hydrolysis rate from p-ERK inhibition by SHP2 inhibitor” value (KRAS^G12C) was 0.00094 s⁻¹ and the “single agent activity” value (MIA PaCa-2 (pancreas)) was “lack of single agent activity”.

In the case of `N.N.O=C([O-])C1(C(=O)[O-])CCC1.[Pt+2]` [carboplatin], the “tumor growth, carboplatin combination study” value (NCI-H358 tumors) is reported as “significant tumor growth inhibition”.

In the case of `C#Cc1cccc(Nc2ncnc3cc(OCCOC)c(OCCOC)cc23)c1` [erlotinib], the “single agent activity” value (MIA PaCa-2 (pancreas)) is reported as “lack of erlotinib activity”.
